This passage reports IC50 results from US20110112100A1, “Hepatitis C Virus Inhibitors” (priority 2009, published 2011).

Structures can show the parent of a compound that is named as a salt. Where two headings read alike, the source gives them in different places.

One experiment relates to 1a-H77 replicon cells. The experiment in a line: HCV 1a replicon inhibitory activity (Renilla luciferase). In kind it is cell-based, hepatitis C virus. As to conditions: read-out: IC50 value (95% Confidence Intervals) pM Replicon 1A assay. As for the experimental part:
(§1) Test compounds were solubilised to 4 mM in 100% DMSO. Dilutions were made to the desired starting concentration in 100% DMSO and then 1 in 3 dilutions made, again in 100% DMSO. 0.5 μl of each sample was added to 384-well assay plates. White Lumitrac (Greiner) plates were used for the 1a and 1b replicon assays and black, clear bottomed (Greiner) plates were used for the WST-1 cytotoxity assay.
1a-H77 replicon cells (licensed from Apath LLC) were resuspended to a concentration of 1.4×10^5 cells/ml by addition of pre-warmed assay medium (Dulbecco's Modified Eagle's Medium (DMEM)+10% fetal calf serum (FCS)). 50 μl of this suspension was added to each well of a 384-well assay plate (Lumitrac, Greiner), already containing 0.5 μl of test compound.
All plates were covered with gas permeable seals and incubated at 37° C., 5% CO2 for 48 hours. After 48 hours, the assay plate was removed from the incubator and left to cool to room temperature for 15 to 30 mins. Medium was removed from the wells and 5 μl 1× lysis buffer (from Promega's Renilla Luciferase assay kit, E2820) was added to each well. The plate was incubated at room temperature for 15 mins then 15 μl 1×Assay Substrate (from the same kit) was added to each well. Luminescence was read immediately using an EnVision (Perkin Elmer) plate reader. The half maximal effective concentration (1050) values were calculated by constructing log concentration-response curves for each compound.
A general note: Replicon systems follow genome replication, usually without infectious particles.

In a further experiment the test system is 1b (con1) replicon cells. Nature of the experiment: HCV 1b replicon inhibitory activity (luciferase, Britelite Plus). In kind it is cell-based, hepatitis C virus. The note with it: read-out: IC50 value (95% Confidence Intervals) pM Replicon 1B assay. The protocol:
as §1
1b (con1) replicon cells (pFK1389lucubineo/NS3-3′/ET/9B, licensed from Ralf Bartenschlager, University of Heidelberg) were resuspended to a concentration of 1.4×10^5 cells/ml by addition of pre-warmed medium (DMEM+10% FCS). 50 μl of this suspension was added to each well of a 384-well assay plate (Lumitrac, Greiner) already containing 0.5 μl of test compound.
All plates were covered with gas permeable seals and incubated at 37° C., 5% CO2 for 48 hours. After 48 hours, the plate was removed from the incubator and left to cool to room temperature for 15-30 mins. 35 ul of reconstituted Lyophilised Britelite Plus Substrate (PerkinElmer, 6016767) to medium was added to each well. Luminescence was read after 1 min but before 15 mins on an EnVision (Perkin Elmer) plate reader. The half maximal effective concentration (1050) values were calculated by constructing log concentration-response curves for each compound.

Where [1] appears, read: Hepatitis C virus, geometric mean, 95% confidence intervals in parentheses, 48 hours, medium with 10% FCS.
Where [2] appears, read: geometric mean, 95% confidence intervals in parentheses, 48 hours, medium with 10% FCS.

Take `COC(=O)N[C@H](C(=O)N1CCC[C@H]1c1nc(-c2ccc(-c3cc4ccc(-c5cnc([C@@H]6CCCN6C(=O)[C@@H](NC(=O)OC)C(C)C)[nH]5)cc4cn3)nc2)c[nH]1)C(C)C` [Example 11, Methyl {(2S)-1-[(2S)-2-{4-[6-(7-{2-[(2S)-1-{(2S)-2-[(methoxycarbonyl)amino]-3-methyl-butanoyl}pyrrolidin-2-yl]-1H-imidazol-5-yl}isoquinolin-3-yl)pyridin-3-yl]-1H-imidazol-2-yl}pyrrolidin-1-yl]-3-methyl-1-oxobutan-2-yl}carbamate]: the IC50 (in general, the midpoint of a concentration-inhibition curve) in the experiment with 1a-H77 replicon cells (setting [1]) worked out at 42.1 pM; in the experiment with 1b (con1) replicon cells (setting [1]), 20.8 pM.

For `COC(=O)N[C@H](C(=O)N1CCC[C@H]1c1nc(-c2ccc(-c3cnc4cc(-c5cnc([C@@H]6CCCN6C(=O)[C@H](NC(=O)OC)[C@@H](C)OC(C)(C)C)[nH]5)ccc4n3)cc2)c[nH]1)C(C)C` [Example 75, Methyl {(2S)-1-[(2S)-2-{4-[4-(6-{2-[(2S)-1-{(2R,3R)-3-tert-butoxy-2-[(methoxycarbonyl)amino]butanoyl}pyrrolidin-2-yl]-1H-imidazol-5-yl}quinoxalin-2-yl)phenyl]-1H-imidazol-2-yl}pyrrolidin-1-yl]-3-methyl-1-oxobutan-2-yl}carbamate trifluoroacetic acid salt], the IC50 came to 4190 pM with 1a-H77 replicon cells (Hepatitis C virus, 48 h) and 143 pM in the experiment with 1b (con1) replicon cells (Hepatitis C virus, 48 h).

`COC(=O)N[C@H](C(=O)N1CCC[C@H]1c1nc(-c2ccc(-c3cnc4cc(-c5cnc([C@@H]6CCCN6C(=O)[C@@H](CC(C)C)NC(=O)OC)[nH]5)ccc4n3)cc2)c[nH]1)C(C)C` [Example 54, Methyl {(2R)-1-[(2S)-2-{5-[2-(4-{2-[(2S)-1-{(2S)-2-[(methoxycarbonyl)amino]-3-methylbutanoyl}pyrrolidin-2-yl]-1H-imidaozl-4-yl}phenyl)quinoxalin-6-yl]-1H-imidazol-2-yl}pyrrolidin-1-yl]-4-methyl-1-oxopentan-2-yl}carbamate trifluoroacetic acid salt]: the IC50 amounted to 61.2 pM in the experiment with 1a-H77 replicon cells (setting [2]) and 14.9 pM with 1b (con1) replicon cells (setting [2]).

With “Methyl {(2S)-1-[(2S)-2-{4-[4-(6-{2-[(2S)- 1-{(2S)-3-tert-butoxy-2-[(methoxy carbonyl)amino]propanoyl}pyrrolidin-2- yl]-1H-imidazol-5-yl}quinoxalin-2-yl) phenyl]-1H-imidazol-2-yl}pyrrolidin-1-yl]- 3-methyl-1-oxobutan-2-yl}carbamate trifluoroacetic acid salt [Example 81]”, the results for the IC50 in the experiment with 1a-H77 replicon cells (setting [2]) and with 1b (con1) replicon cells (setting [2]) were 44 pM and 13.7 pM, respectively.

On to `CCCC[C@@H](NC(=O)OC)C(=O)N1CCC[C@H]1c1ncc(-c2ccc3nc(-c4ccc(-c5c[nH]c([C@@H]6CCCN6C(=O)[C@@H](NC(=O)OC)C(C)C)n5)cc4)cnc3c2)[nH]1` [Example 78, Methyl {(2R)-1-[(2S)-2-{5-[2-(4-{2-[(2S)-1-{(2S)-2-[(methoxycarbonyl)amino]-3-methylbutanoyl}pyrrolidin-2-yl]-1H-imidazol-4-yl}phenyl)quinoxalin-6-yl]-1H-imidazol-2-yl}pyrrolidin-1-yl]-1-oxohexan-2-yl}carbamate trifluoroacetic acid salt], for which the IC50 in the experiment on 1a-H77 replicon cells (Hepatitis C virus, 48 h) turned out to be 443 pM; with 1b (con1) replicon cells (Hepatitis C virus, 48 h), 45.5 pM.

In the case of `CCC[C@H](NC(=O)OC)C(=O)N1CCC[C@H]1c1ncc(-c2ccc3nc(-c4ccc(-c5c[nH]c([C@@H]6CCCN6C(=O)[C@@H](NC(=O)OC)C(C)C)n5)cc4)cnc3c2)[nH]1` [Example 55, Methyl {(2S)-1-[(2S)-2-{5-[2-(4-{2-[(2S)-1-{(2S)-2-[(methoxycarbonyl)amino]-3-methylbutanoyl}pyrrolidin-2-yl]-1H-imidazol-4-yl}phenyl)quinoxalin-6-yl]-1H-imidazol-2-yl}pyrrolidin-1-yl]-1-oxopentan-2-yl}carbamate trifluoroacetic acid salt], the IC50 with 1a-H77 replicon cells (Hepatitis C virus, 48 h) turned out to be 18.1 pM; in the experiment with 1b (con1) replicon cells (Hepatitis C virus, 48 h), 8.85 pM.

Regarding `COC(=O)N[C@H](C(=O)N1CCC[C@H]1c1nc(-c2cnc(-c3cnc4cc(-c5cnc([C@@H]6CCCN6C(=O)[C@@H](NC(=O)OC)C(C)C)[nH]5)ccc4n3)nc2)c[nH]1)C(C)C` [Example 21, Methyl {(2S)-1-[(2S)-2-{5-[2-(5-{2-[(2S)-1-{(2S)-2-[(methoxycarbonyl)amino]-3-methylbutanoyl}pyrrolidin-2-yl]-1H-imidazol-4-yl}pyrimidin-2-yl)quinoxalin-6-yl]-1H-imidazol-2-yl}pyrrolidin-1-yl]-3-methyl-1-oxobutan-2-yl}carbamate], the figures for the 50% inhibitory concentration (IC50) in the experiment with 1a-H77 replicon cells (setting [1]) and in the experiment on 1b (con1) replicon cells (setting [1]) were 671 pM and 222 pM, respectively.

`COC(=O)N[C@H](C(=O)N1CCC[C@H]1c1nc(-c2ccc(-c3cnc4cc(-c5cnc([C@@H]6CCCN6C(=O)CNC(=O)c6cc(C)on6)[nH]5)ccc4n3)cc2)c[nH]1)C(C)C` [Example 42, Methyl {(2S)-3-methyl-1-[(2S)-2-{4-[4-(6-{2-[(2S)-1-{N-[(5-methylisoxazol-3-yl)carbonyl]glycyl}pyrrolidin-2-yl]-1H-imidazol-5-yl}quinoxalin-2-yl)phenyl]-1H-imidazol-2-yl}pyrrolidin-1-yl]-1-oxobutan-2-yl}carbamate trifluoroacetic acid salt]: the IC50 with 1a-H77 replicon cells (Hepatitis C virus, 48 h) was determined as 2870 pM; in the experiment with 1b (con1) replicon cells (Hepatitis C virus, 48 h), 247 pM.

With `COC(=O)N[C@H](C(=O)N1CCC[C@H]1c1ncc(-c2ccc(-c3nc(O)c4cc(-c5cnc([C@@H]6CCCN6C(=O)[C@@H](NC(=O)OC)C(C)C)[nH]5)ccc4n3)cc2)[nH]1)C(C)C` [Example 15, Methyl {(2S)-1-[(2S)-2-{5-[4-(4-hydroxy-6-{2-[(2S)-1-{(2S)-2-[(methoxycarbonyl)amino]-3-methylbutanoyl}pyrrolidin-2-yl]-1H-imidazol-5-yl}quinazolin-2-yl)phenyl]-1H-imidazol-2-yl}pyrrolidin-1-yl]-3-methyl-1-oxobutan-2-yl}carbamate], the IC50 in the experiment with 1a-H77 replicon cells (setting [1]) was 194 pM; in the experiment with 1b (con1) replicon cells (setting [1]), 102 pM.

As for `COC(=O)N[C@H](C(=O)N1CCC[C@H]1c1nc(-c2ccc(-c3cnc4cc(-c5cnc([C@@H]6CCCN6C(=O)[C@@H](NC(=O)OC)C(C)C)[nH]5)cnc4c3)cc2)c[nH]1)C(C)C` [Example 19, Methyl {(2S)-1-[(2S)-2-{5-[7-(4-{2-[(2S)-1-{(2S)-2-[(methoxycarbonyl)amino]-3-methylbutanoyl}pyrrolidin-2-yl]-1H-imidazol-4-yl}phenyl)-1,5-naphthyridin-3-yl]-1H-imidazol-2-yl}pyrrolidin-1-yl]-3-methyl-1-oxobutan-2-yl}carbamate], the IC50 with 1a-H77 replicon cells (setting [1]) is 468 pM; in the experiment with 1b (con1) replicon cells (setting [1]), 38.3 pM.

As for `CCC[C@@H](NC(=O)OC)C(=O)N1CCC[C@H]1c1ncc(-c2ccc3nc(-c4ccc(-c5c[nH]c([C@@H]6CCCN6C(=O)[C@@H](NC(=O)OC)C(C)C)n5)cc4)cnc3c2)[nH]1` [Example 77, Methyl {(2R)-1-[(2S)-2-{5-[2-(4-{2-[(2S)-1-{(2S)-2-[(methoxycarbonyl)amino]-3-methylbutanoyl}pyrrolidin-2-yl]-1H-imidazol-4-yl}phenyl)quinoxalin-6-yl]-1H-imidazol-2-yl}pyrrolidin-1-yl]-1-oxopentan-2-yl}carbamate trifluoroacetic acid salt], the IC50 in the experiment on 1a-H77 replicon cells (Hepatitis C virus, 48 h) stood at 186 pM; in the experiment on 1b (con1) replicon cells (Hepatitis C virus, 48 h), 31.4 pM.

Take `COC(=O)N[C@H](C(=O)N1CCC[C@H]1c1ncc(-c2cnc(-c3ccc4cc(-c5cnc([C@@H]6CCCN6C(=O)[C@@H](NC(=O)OC)C(C)C)[nH]5)ccc4c3)nc2)[nH]1)C(C)C` [Example 7, Methyl {(2S)-1-[(2S)-2-{5-[6-(5-{2-[(2S)-1-{(2S)-2-[(methoxycarbonyl)amino]-3-methyl-butanoyl}pyrrolidin-2-yl]-1H-imidazol-5-yl}pyrimidin-2-yl)naphthalen-2-yl]1H-imidazol-2-yl}pyrrolidin-1-yl]-3-methyl-1-oxobutan-2-yl}carbamate]: the figures for the IC50 in the experiment on 1a-H77 replicon cells (setting [1]) and in the experiment on 1b (con1) replicon cells (setting [1]) were 68.4 pM and 21.4 pM, respectively.
